From patent US8541379B2 (Ajinomoto Co., Inc., priority 2009, dated 2013)
Blank lines part the entries; values can stand above or below the compound they belong to. Starred links: 1 amine or outer side, 2 acyl side, 3 side chain; linkers in the order of their positions; H or OH if unused. Non-standard residues stand in square brackets, D forms with d. No end group written: not given here. γGlu = O=C(O)[C@H](CCC(=O)[*:2])N[*:1]

Experiments:
human CaSR = target: T1, human CaSR (Homo sapiens, UniProt P41180, E1011Q); experiment: Evaluation of CaSR agonist activity (Ca2+ fluorescence, hCaSR-transfected 293E cells); assay type: cell-based; conditions: 293E cells transfected with hCaSR/pcDNA3.1, Calcium 4 fluorescence, FLEX Station
T1 construct: expressed in transfected cells; host or cells: 293E cells (EBNA1-expressing HEK293, ATCC CRL-10852), transient transfection with Fugene6
T1 sequence (P41180 20-1078 E1011Q): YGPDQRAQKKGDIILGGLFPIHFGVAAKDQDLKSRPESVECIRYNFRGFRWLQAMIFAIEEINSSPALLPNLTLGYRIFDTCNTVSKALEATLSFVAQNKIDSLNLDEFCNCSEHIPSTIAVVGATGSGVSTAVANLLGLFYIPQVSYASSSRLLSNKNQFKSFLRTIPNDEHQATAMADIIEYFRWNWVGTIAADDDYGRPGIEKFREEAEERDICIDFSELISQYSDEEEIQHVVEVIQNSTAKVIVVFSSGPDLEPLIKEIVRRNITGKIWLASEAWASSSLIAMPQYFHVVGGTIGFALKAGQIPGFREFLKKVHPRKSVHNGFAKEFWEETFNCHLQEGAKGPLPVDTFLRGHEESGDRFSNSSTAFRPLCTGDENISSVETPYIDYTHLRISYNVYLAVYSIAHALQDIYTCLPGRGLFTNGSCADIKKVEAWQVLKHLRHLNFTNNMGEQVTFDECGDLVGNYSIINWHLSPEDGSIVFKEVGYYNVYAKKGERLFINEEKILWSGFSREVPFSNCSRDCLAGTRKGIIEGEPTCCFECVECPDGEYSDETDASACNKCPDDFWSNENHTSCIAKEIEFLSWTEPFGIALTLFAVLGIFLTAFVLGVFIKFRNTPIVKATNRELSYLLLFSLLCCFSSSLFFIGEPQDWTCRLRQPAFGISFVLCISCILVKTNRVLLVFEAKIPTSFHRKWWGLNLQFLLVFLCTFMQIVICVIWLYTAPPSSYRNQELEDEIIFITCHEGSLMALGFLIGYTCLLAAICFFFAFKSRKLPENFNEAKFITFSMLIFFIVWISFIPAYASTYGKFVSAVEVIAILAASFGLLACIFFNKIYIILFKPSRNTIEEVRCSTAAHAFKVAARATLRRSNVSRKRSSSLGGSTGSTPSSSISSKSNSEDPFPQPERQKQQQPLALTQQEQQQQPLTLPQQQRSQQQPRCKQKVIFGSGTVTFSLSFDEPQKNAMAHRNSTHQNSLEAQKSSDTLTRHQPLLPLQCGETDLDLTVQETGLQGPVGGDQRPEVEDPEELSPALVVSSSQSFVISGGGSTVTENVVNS
Experimental: 293E Cells (EBNA1-expresion HEK293 cells, ATCC No. CRL-10852) were cultivated in DMEN/Ham's-F12 (3.15/mL glucose-containing Dulbecco's modified Eagle medium, available from Nakaraitesk Company) supplemented with 10% fetal calf serum, in the presence of 200 μg/mL of G418 (available from Genetisin). The cultured cells were inoculated in F25 flask at a density of 3×10^6 cells/10 mL, the flask was allowed to stand over 24 hours in a CO2 incubator (5% CO2, 37° C.), and then the human CaSR-expression plasmid hCaSR/pcDNA3.1 was transformed or transfected with a reagent for transfection Fugene6 (available from Roche Company). The transfected plasmid was maintained in a CO2 incubator for 6 to 7 hours, then the cells were recovered using a 10% fetal calf serum-containing DMEM/Ham's-F12 and the cells were inoculated in each well of a poly-D-lysine coat 96-well plate (BD-Biocoat) at a density of 70,000 cells/well.
To each well of the 96-well plate, each test compound was dissolved in a 0.1% BSA-containing Assay Buffer in an amount of 50 μl/well, and then any change of the intensity of fluorescence was monitored over 3 minutes using FLEX Station (available from Molecular Devices Company).
Method for the Determination of EC50:
The difference (RFU (Max-Min)) between the maximum and minimum fluorescent intensities observed for each well before and after the addition of each specific test compound was determined by the automatic calculation using FLEX Station. The activity rate was calculated while the RFU (Max-Min) value observed when adding the compound at the maximum concentration was defined to be 100% and the RFU (Max-Min) value observed when using the 0.1% BSA-containing Assay Buffer free of any test compound was defined to be 0%, followed by subjecting the resulting data to the curve-fitting procedures using the spreadsheet software Xfit or Graph-Pad-Prism to thus determine the EC50 which was the concentration of the compound at the activity rate of 50%.
In addition, the same EC50-determining procedures used above were repeated except for using other dipeptides as Comparative Examples.

[1] = Quantitative sensory evaluation test of kokumi-imparting activity; assay type: in vivo, human; conditions: n=4; for Intensity of kokumi, Initial Taste: scale control 0, strong 3, very strong 5
Experimental: This quantitative sensory evaluation test was carried out according to the following procedures: The intensity of the kokumi-imparting activity observed for each test compound was determined as a value observed when blending 0.00001 to 0.5 g/dL of the corresponding test compound with the distilled water containing sodium glutamate (0.05 g/dL), inosinic acid monophosphate (0.05 g/dL), and sodium chloride (0.5 g/dL). […] The evaluation criteria are assumed to be as follows: control: 0 point; strong: 3 points; very strong: 5 points. Moreover, to clarify the criteria, the initial taste and the middle/after taste of γ-Glu-Val-Gly were set at 3.0 points, respectively. The scoring or rating was carried out using the method of line scale and more specifically, it was carried out by writing each corresponding score on a straight line on which points corresponding to −5˜0˜5 had been indicated. The panelists used in this test were defined to be persons who had been engaged in the development of seasonings for foods over not less than one year of the cumulative time period and who could judge that the difference in the titer between γ-Glu-Cys-Gly and γ-Glu-Val-Gly added to a solution having umami/salty taste is about 10 times (while confirming the ability of these persons at regular intervals). The evaluation was carried out at n (the number of panelists used)=4. The term “initial taste” means the taste which develops from 0 to 2 seconds after the sample is placed in the panelist's mouth, while the term “middle/after taste” means the taste which develops thereafter.
In addition, γ-Glu-Val-Gly, γ-Glu-Cys, γ-Glu-Val, γ-Glu-Ala and γ-Glu-Ser were likewise inspected for their kokumi-imparting effect according to the same procedures used above.

[2] = 0.2 g/dL in water with MSG 0.05, IMP 0.05, NaCl 0.5 g/dL
[3] = 0.01 g/dL in umami/salty solution
[4] = 0.01 g/dL in water with MSG 0.05, IMP 0.05, NaCl 0.5 g/dL
[5] = 0.001 g/dL in water with MSG 0.05, IMP 0.05, NaCl 0.5 g/dL, reference set at 3.0

EC50 (human CaSR): 0.21 µM
Compound: CC[C@H](NC(=O)CC[C@H](N)C(=O)O)C(=O)O

EC50 (human CaSR): 15.4 µM
Compound: CC(C)(NC(=O)CC[C@H](N)C(=O)O)C(=O)O [γ-Glu-Aib]

EC50 (human CaSR): 1.24 µM
Compound: C[C@H](NC(=O)CC[C@H](N)C(=O)O)C(=O)O [γ-Glu-Ala]
Sensory Evaluation Profile ([1]; 0.2 g/dL in umami/salty solution): Mainly the tastes similar to the sour
Intensity of kokumi, Middle/After Taste [1, 2]: 4.3 points
Intensity of kokumi, Initial Taste [1, 2]: 4.5 points

Compound: N[C@@H](CCC(=O)N[C@@H](CS)C(=O)O)C(=O)O [γ-Glu-Cys]
EC50 (human CaSR): 0.16 µM
Sensory Evaluation Profile [1, 3]: Mainly the middle and after tastes
Intensity of kokumi, Middle/After Taste [1, 4]: 3.1 points
Intensity of kokumi, Initial Taste [1, 4]: 3.1 points

EC50 (human CaSR): 4.41 µM
Compound: CCCC[C@H](NC(=O)CC[C@H](N)C(=O)O)C(=O)O [γ-Glu-Nle, γ-L-glutamyl-L-norleucine]

EC50 (human CaSR): 11 µM
Compound: N[C@@H](CCC(=O)N[C@@H](CO)C(=O)O)C(=O)O [γ-Glu-Ser]
Intensity of kokumi, Middle/After Taste [1, 2]: 3.0 points
Intensity of kokumi, Initial Taste [1, 2]: 3.6 points

EC50 (human CaSR): 6.97 µM
Compound: C[C@@H](O)[C@H](NC(=O)CC[C@H](N)C(=O)O)C(=O)O [γ-Glu-Thr]

EC50 (human CaSR): 1.03 µM
Compound: CC(C)[C@H](NC(=O)CC[C@H](N)C(=O)O)C(=O)O [γ-Glu-Val]
Sensory Evaluation Profile [1, 3]: The after taste was quite weak.
Intensity of kokumi, Middle/After Taste [1, 4]: 2.4 points
Intensity of kokumi, Initial Taste [1, 4]: 3.1 points

EC50 (human CaSR): 3.06 µM
Compound: CC(C)(C)[C@H](NC(=O)CC[C@H](N)C(=O)O)C(=O)O [γ-Glu-tLeu]

Compound: [γGlu]-Val-Gly
Intensity of kokumi, Middle/After Taste [1, 5]: 3.0 points
Intensity of kokumi, Initial Taste [1, 5]: 3.0 points
